Source: patent US20130317029A1 (PORTOLA PHARMACEUTICALS, INC., priority 2010, published 2013)

Each compound was assayed against T1, full length active recombinant SYK enzyme (Homo sapiens, UniProt P43405) (assay: Inhibition of Syk tyrosine phosphorylation activity (LANCE TR-FRET kinase assay)).
T1 construct: full length active recombinant SYK enzyme (Millipore, Calif.); purchased Millipore
Format: biochemical
Source text: This example illustrates methods for evaluating the compounds of the invention, along with results obtained for such assays. The in vitro and in vivo human Syk activities of the inventive compounds can be determined by various procedures known in the art, such as a test for their ability to inhibit the activity of human plasma Syk. […] The IC50 value is the concentration (in nM) of the compound required to provide 50% inhibition of human Syk proteolytic activity.
Potency of candidate molecules for inhibiting Syk tyrosine phosphorylation activity is assessed by measuring the ability of a test compound to inhibit Syk-mediated tyrosine phosphorylation of a Syk-specific substrate.
SYK tyrosine phosphorylation activity is measured using the LANCE™ Technology developed by Perkin Elmer Life and Analytical Sciences (Boston, Mass.). LANCE™ refers to homogeneous time resolved fluorometry applications using techniques such as time-resolved fluorescence resonance energy transfer assay (TR-FRET) (see generally for procedures in Perkin Elmer Application Note—How to Optimize a Tyrosine Kinase Assay Using Time Resolved Fluorescence-Based LANCE Detection, wwww.perkinelmer.com/lifesciences). The assay principle involves detection of a phosphorylated substrate using energy transfer from a phosphospecific europium-labeled antibody to streptavidin-allophycocyanin as an acceptor.
To test the ability of candidate molecules to inhibit SYK tyrosine phosphorylation activity, molecules are reconstituted in 30% DMSO and serially diluted 1:3 with the final dilution containing DMSO in the absence of the candidate molecule. The final DMSO concentration in the assay is 3%. Kinase assays are performed as a two part reaction. The first reaction is a kinase reaction and which comprises of a candidate molecule, full length active recombinant SYK enzyme (Millipore, Calif.) and biotin-labeled SYK-specific substrate biotin-[…]-OH. The second reaction involves termination of the kinase reaction and the simultaneous addition of the detection reagents-europium-labeled anti-phosphotyrosine reagent (Eu-W1024-PY100, Perkin Elmer, Boston, Mass.) and Streptavidin-Allophycocyanin detection reagent (SA-APC, Prozyme, Calif.). The kinase reaction is performed in a black U-bottom 96-well microtitre plate. The final reaction volume is 50 μL and contains a final concentration of 1 nM active SYK enzyme, 550 nM SYK-substrate, and 100 μM ATP diluted in a buffer containing 50 mM Tris pH 7.5, 5 mM MgCl2, and 1 mM DTT. The reaction is allowed to proceed for 1 hour at room temperature. The quench buffer contains 100 mM Tris pH 7.5, 300 mM NaCl2, 20 mM EDTA, 0.02% Brij35, and 0.5% BSA. The detection reagents are added to the reaction mixture at the following dilutions-1:500 for Eu-W1024-PY100 and 1:250 for SA-APC. The kinase reaction is terminated by the addition of 50 μL quench buffer containing the detection reagents. The detection is allowed to proceed for 1 hr at room temperature. Detection of the phosphorlated substrate in the absence and presence of inhibitors is measured in the TR-FRET instrument, Analyst HT (Molecular Probes, Sunnyvale, Calif.) and the condition for measurements are set up using CriterionHost Release 2.0 (Molecular Probes, Sunnyvale, Calif.). The settings used are a follows: excitation 360 nm, emission 665-7.5 nm, beam splitter 350 nm 50/50, flash 100 pulses, delay 60 us, integration 400 us, z-height 2 mm. Inhibition of SYK-tyrosine kinase activity is calculated as the maximum response observed in the presence of inhibitor, compared to that in the absence of inhibitor. IC50s were derived by non-linear regression analysis.

`NC(=O)c1c(Nc2cccc(-c3ccccn3)c2)nc(N[C@H](CC2CC2)C(N)=O)[nH]c1=O` [Example 95, (R)-2-(1-amino-3-cyclopropyl-1-oxopropan-2-ylamino)-6-oxo-4-(3-(pyridin-2-yl)phenylamino)-1,6-dihydropyrimidine-5-carboxamide] and `CC(C)C[C@@H](Nc1nc(Nc2cccc(-c3ccccn3)c2)c(C(N)=O)c(=O)[nH]1)C(N)=O` [Example 40, (R)-2-(1-amino-4-methyl-1-oxopentan-2-ylamino)-6-oxo-4-(3-(pyridin-2-yl)phenylamino)-1,6-dihydropyrimidine-5-carboxamide] fall in the same range of IC50: 1 to 10 nM for the first, 1 to 10 nM for the second.

`CC[C@@H](Nc1nc(Nc2ccc(OC(F)(F)F)cc2)c(C(N)=O)c(=O)[nH]1)C(N)=O` [Example 92, (R)-2-(1-amino-1-oxobutan-2-ylamino)-4-(4-(trifluoromethoxy)phenylamino)-6-oxo-1,6-dihydropyrimidine-5-carboxamide] and `CC(C)C[C@@H](Nc1nc(Nc2cccc(OC(F)(F)F)c2)c(C(N)=O)c(=O)[nH]1)C(N)=O` [Example 101, (R)-2-(1-amino-4-methyl-1-oxopentan-2-ylamino)-4-(3-(trifluoromethoxy)phenylamino)-6-oxo-1,6-dihydropyrimidine-5-carboxamide] fall in the same range of IC50: 1 to 10 nM for the first, 1 to 10 nM for the second.

First: CNC(=O)[C@@H](CC(C)C)Nc1nc(Nc2ccc3[nH]ncc3c2)c(C(N)=O)c(=O)[nH]1 [Example 105, (R)-4-(1H-indazol-5-ylamino)-2-(4-methyl-1-(methylamino)-1-oxopentan-2-ylamino)-6-oxo-1,6-dihydropyrimidine-5-carboxamide]
Second: COc1cccc(Nc2nc(N[C@H](CC(C)C)C(N)=O)[nH]c(=O)c2C(N)=O)c1 [Example 77, (R)-2-(1-amino-4-methyl-1-oxopentan-2-ylamino)-4-(3-methoxyphenylamino)-6-oxo-1,6-dihydropyrimidine-5-carboxamide]
The IC50 of the first is higher: 100 to 1000 nM for the first, 1 to 10 nM for the second.

`CC(C)C[C@@H](Nc1nc(Nc2cnn(C)c2)c(C(N)=O)c(=O)[nH]1)C(N)=O` [Example 114, (R)-2-(1-amino-4-methyl-1-oxopentan-2-ylamino)-4-(1-methyl-1H-pyrazol-4-ylamino)-6-oxo-1,6-dihydropyrimidine-5-carboxamide] and `CC(C)C[C@@H](Nc1nc(Nc2ccc3c(c2)OCCO3)c(C(N)=O)c(=O)[nH]1)C(N)=O` [Example 78, (R)-2-(1-amino-4-methyl-1-oxopentan-2-ylamino)-4-(2,3-dihydrobenzo[b][1,4]dioxin-6-ylamino)-6-oxo-1,6-dihydropyrimidine-5-carboxamide] fall in the same range of IC50: 1 to 10 nM for the first, 1 to 10 nM for the second.

Compared with `Cc1cc(C)cc(Nc2nc(N[C@H](C)C(N)=O)[nH]c(=O)c2C(N)=O)c1` [Example 56, (R)-2-(1-amino-1-oxopropan-2-ylamino)-4-(3,5-dimethylphenylamino)-6-oxo-1,6-dihydropyrimidine-5-carboxamide], `Cc1cc(C)cc(Nc2nc(N[C@@H](C(N)=O)C(C)C)[nH]c(=O)c2C(N)=O)c1` [Example 2, (R)-2-(1-amino-3-methyl-1-oxobutan-2-ylamino)-4-(3,5-dimethylphenylamino)-6-oxo-1,6-dihydropyrimidine-5-carboxamide] is lower in IC50: > 1000 nM for the first, 1 to 10 nM for the second.

First: CCOc1nc(N[C@@H](C(N)=O)C(C)C)nc(Nc2cc(C)cc(C)c2)c1C(N)=O [Example 4, (R)-2-(1-amino-3-methyl-1-oxobutan-2-ylamino)-4-(3,5-dimethylphenylamino)-6-ethoxypyrimidine-5-carboxamide]
Second: COc1nc(N[C@@H](C(N)=O)C(C)C)nc(Nc2cc(C)cc(C)c2)c1C(N)=O [Example 1, (R)-2-(1-amino-3-methyl-1-oxobutan-2-ylamino)-4-(3,5-dimethylphenylamino)-6-methoxypyrimidine-5-carboxamide]
The IC50 of the first is higher: 100 to 1000 nM for the first, 10 to 100 nM for the second. The second is the more potent here.

Compared with `CC[C@@H](Nc1nc(Nc2ccc3c(c2)OCCO3)c(C(N)=O)c(=O)[nH]1)C(N)=O` [Example 86, (R)-2-(1-amino-1-oxobutan-2-ylamino)-4-(2,3-dihydrobenzo[b][1,4]dioxin-6-ylamino)-6-oxo-1,6-dihydropyrimidine-5-carboxamide], `CC[C@@H](Nc1nc(Nc2ccc3ncccc3c2)c(C(N)=O)c(=O)[nH]1)C(N)=O` [Example 21, (R)-2-(1-amino-1-oxobutan-2-ylamino)-6-oxo-4-(quinolin-6-ylamino)-1,6-dihydropyrimidine-5-carboxamide] is lower in IC50: 1 to 10 nM for the first, < 1 nM for the second.

`CC(C)C[C@@H](Nc1nc(Nc2cccc(-c3ccncc3)c2)c(C(N)=O)c(=O)[nH]1)C(N)=O` [Example 112, (R)-2-(1-amino-4-methyl-1-oxopentan-2-ylamino)-6-oxo-4-(3-(pyridin-4-yl)phenylamino)-1,6-dihydropyrimidine-5-carboxamide] and `CC(C)C[C@@H](Nc1nc(Nc2ccc(-c3cccnc3)cc2)c(C(N)=O)c(=O)[nH]1)C(N)=O` [Example 106, (R)-2-(1-amino-4-methyl-1-oxopentan-2-ylamino)-6-oxo-4-(4-(pyridin-3-yl)phenylamino)-1,6-dihydropyrimidine-5-carboxamide] fall in the same range of IC50: 1 to 10 nM for the first, 1 to 10 nM for the second.

`CC(C)C[C@@H](Nc1nc(Nc2cccc(-n3ccnc3)c2)c(C(N)=O)c(=O)[nH]1)C(N)=O` [Example 118, (R)-2-(1-amino-4-methyl-1-oxopentan-2-ylamino)-4-(3-(1H-imidazol-1-yl)phenylamino)-6-oxo-1,6-dihydropyrimidine-5-carboxamide] and `CC(C)[C@@H](Nc1nc(Nc2cccc(-n3nccn3)c2)c(C(N)=O)c(=O)[nH]1)C(N)=O` [Example 6, (R)-4-(3-(2H-1,2,3-triazol-2-yl)phenylamino)-2-(1-amino-3-methyl-1-oxobutan-2-ylamino)-6-oxo-1,6-dihydropyrimidine-5-carboxamide] fall in the same range of IC50: 1 to 10 nM for the first, 1 to 10 nM for the second.

First: Cc1cc(C)cc(Nc2nc(N[C@@H](CN)C(C)C)[nH]c(=O)c2C(N)=O)c1 [Example 12, (R)-2-(1-amino-3-methylbutan-2-ylamino)-4-(3,5-dimethylphenylamino)-6-oxo-1,6-dihydropyrimidine-5-carboxamide]
Second: COc1nc(N[C@H](C)C(N)=O)nc(Nc2cc(C)cc(C)c2)c1C(N)=O [Example 66, (R)-2-(1-amino-1-oxopropan-2-ylamino)-4-(3,5-dimethylphenylamino)-6-methoxypyrimidine-5-carboxamide]
The IC50 of the first is lower: 1 to 10 nM for the first, 100 to 1000 nM for the second.

First: NC(=O)c1c(Nc2cccc(-n3nccn3)c2)nc(N[C@@H]2CCCNC2)[nH]c1=O [Example 37]
Second: NC(=O)c1c(Nc2ccc(S(N)(=O)=O)cc2)nc(NC2CC2)[nH]c1=O [Example 42, 2-(cyclopropylamino)-6-oxo-4-(4-sulfamoylphenylamino)-1,6-dihydropyrimidine-5-carboxamide]
The IC50 of the first is lower: < 1 nM for the first, 10 to 100 nM for the second.

Compared with `CC(=O)N(C)c1ccc(Nc2nc(NC3CC3)[nH]c(=O)c2C(N)=O)cc1` [Example 43, 2-(cyclopropylamino)-4-(4-(N-methylacetamido)phenylamino)-6-oxo-1,6-dihydropyrimidine-5-carboxamide], `CC(C)[C@@H](Nc1nc(Nc2ccc3ncccc3c2)c(C(N)=O)c(=O)[nH]1)C(N)=O` [Example 20, (R)-2-(1-amino-3-methyl-1-oxobutan-2-ylamino)-6-oxo-4-(quinolin-6-ylamino)-1,6-dihydropyrimidine-5-carboxamide] is lower in IC50: > 1000 nM for the first, 1 to 10 nM for the second. The second is the more potent here.

Compared with `CC[C@@H](Nc1nc(Nc2ccc3ncccc3c2)c(C(N)=O)c(OC)n1)C(N)=O` [Example 16, (R)-2-(1-amino-1-oxobutan-2-ylamino)-4-methoxy-6-(quinolin-6-ylamino)pyrimidine-5-carboxamide], `COc1nc(NC[C@H](C)N)nc(Nc2cc(C)cc(C)c2)c1C(N)=O` [Example 68, (S)-2-(2-aminopropylamino)-4-(3,5-dimethylphenylamino)-6-methoxypyrimidine-5-carboxamide] is higher in IC50: 10 to 100 nM for the first, 100 to 1000 nM for the second.
